Laboratory results reported in article PMC8348901, “Novel N-Substituted 3-Aryl-4-(diethoxyphosphoryl)azetidin-2-ones as Antibiotic Enhancers and Antiviral Agents in Search for a Successful Treatment of Complex Infections” (International Journal of Molecular Sciences, 2021).
Read-outs that look alike come from different tables or passages of the source.

Columns and labels:
[1] = in vitro; details: dog
[2] = tested on: influenza A virus H1N1 subtype; experiment: Antiviral assay, influenza A virus H1N1 subtype in MDCK cells; type: cell-based, influenza A virus H1N1 (A/PR/8)
[3] = tested on: NCI-H460 (lung carcinoma); experiment: Cytostatic activity (cell proliferation); type: cell-based
Method: (§1) The 50% cytostatic inhibitory concentration (IC50) causing a 50% decrease in cell proliferation was determined for all obtained compounds toward 9 cancerous cell lines, i.e.,: Capan-1 (pancreatic adenocarcinoma), Hap1 (chronic myeloid leukemia), HCT-116 (colorectal carcinoma), NCI-H460 (lung carcinoma), DND-41 (acute lymphoblastic leukemia), HL-60 (acute myeloid leukemia), K-562 (chronic myeloid leukemia), MM.1S (multiple myeloma), Z-138 non-Hodgkin lymphoma), as well as normal retina (non-cancerous) cells (hTERT RPE-1). Docetaxel, etoposide and stauroporine were used as the reference compounds.
(§2) All assays were performed in 96-well microtiter plates. To each well was added (5–7.5) × 10^4 tumor cells and a given amount of the tested compound. The cells were allowed to proliferate at 37 °C in a humidified, CO2-controlled atmosphere. At the end of the incubation period, the cells were counted in a Coulter counter. The IC50 (50% inhibitory concentration) was defined as the concentration of the compound that inhibited cell proliferation by 50%.

[4] = tested on: HCT-116 (colorectal carcinoma); experiment: Cytostatic activity (cell proliferation); type: cell-based
Method: as §1, §2

[5] = tested on: hTERT RPE-1 normal retina (non-cancerous) cells; experiment: Cytostatic activity (cell proliferation); type: cell-based
Method: as §1, §2

[6] = tested on: Hap1 (chronic myeloid leukemia); experiment: Cytostatic activity (cell proliferation); type: cell-based
Method: as §1, §2

[7] = tested on: DND-41 (acute lymphoblastic leukemia); experiment: Cytostatic activity (cell proliferation); type: cell-based
Method: as §1, §2

[8] = tested on: Capan-1 (pancreatic adenocarcinoma); experiment: Cytostatic activity (cell proliferation); type: cell-based
Method: as §1, with “RPE-1).” for “RPE-1). Docetaxel, etoposide and stauroporine were used as the reference compounds.”
as §2, with “counter.” for “counter. The IC50 (50% inhibitory concentration) was defined as the concentration of the compound that inhibited cell proliferation by 50%.”

[9] = tested on: S. aureus ATCC 25923; experiment: Oxacillin MIC reduction (adjuvant) microdilution assay; type: cell-based, Staphylococcus aureus; details: for Activity Gain [A]: MIC(OXA)/MIC(OXA+Cpd), compound 0.5 mM, adjuvant activity if A ≥ 4
Method: (§3) Since the lack of direct antibacterial activity of the obtained azetidinones was observed, all isomers trans and cis were investigated on their “adjuvant” properties, i.e., an ability to enhance the effectiveness of antibiotics against S. aureus strains. Thus, the compounds were tested in combination with the known β-lactam antibiotic, oxacillin, in the microdilution assays. The ability of the tested azetidinones to reduce minimum inhibitory concentration (MIC) of oxacillin against both, the referenced and the resistant S. aureus strains, was assessed.
(§4) The in-vitro antibacterial property and the capacity of tested compounds to increase the efficacy of antibiotics were evaluated in two Staphylococcus aureus strains, i.e., the reference clonal complex 5 (CC5) methicillin-susceptible (MSSA) strain ATCC 25923, and the methicillin-resistant (MRSA) extensively drug-resistant (XDR) clinical isolate HEMSA-5 [46].
(§5) In order to assess the increase of antibiotic efficacy, the assays were conducted by determining if/to what extent the investigated compounds reduce MICs of oxacillin by means of a serial dilution broth microplate method, in accordance with the CLSI requirements. The concentrations of compounds used in the MICs reduction assay were no greater than 1/4 of their respective MICs to ensure that cell viability was not affected by the intrinsic antibacterial activity of the molecules. Serial two-fold dilutions of oxacillin (Sigma-Aldrich; St. Louis, MI, USA, cat. no. 28221), were prepared in […] of the Mueller–Hinton broth (Merck; Darmstadt, Germany, cat. no. 1102930500). Suitable concentrations of the compounds (total volume […]) were then added. Bacterial suspensions were diluted to OD ¼ 0.5. The resulting suspensions were then diluted 1:100 and added in the volume of […] into the oxacillin serial dilutions with the compounds. The results were read after 20-h incubation at 37 °C.
(§6) The ability of compounds to improve antibiotic efficacy was expressed as the activity gain [A] parameter calculated according to the formula given in Figure 10.
(§7) Figure 10 Activity gain. MICAnt corresponds to the MIC of oxacillin in the absence of a compound tested and MICAnt + Comp refers to the MIC of oxacillin paired with a compound tested.

[10] = tested on: MRSA HEMSA 5; experiment: as above; type: cell-based, Staphylococcus aureus; details: for Activity Gain [A]: MIC(OXA)/MIC(OXA+Cpd), compound 0.5 mM, adjuvant activity if A ≥ 4
Method: as §3, §4, §5, §6, §7

[11] = tested on: Madin Darby canine kidney cells (MDCK); details: microscopically detectable alteration of cell morphology
[12] = tested on: cytomegalovirus AD-169 strain; experiment: Antiviral CPE reduction assay, cytomegalovirus AD-169 strain in HEL cells; type: cell-based, human cytomegalovirus (HCMV); details: Human betaherpesvirus 5, AD169
[13] = tested on: human coronavirus (229E); experiment: microbe, parasite or virus in culture; type: cell-based
[14] = tested on: human embryonic lung (HEL) cells; details: uninfected host cells of the coronavirus/cytomegalovirus assays
[15] = H1N1, MDCK cells, visual CPE score, read-out: EC50 by visual CPE score, influenza A virus H1N1
[16] = H1N1, MDCK, read-out: EC50 by TMS score, influenza A virus H1N1
[17] = oxacillin MIC in presence of 0.5 mM compound

Row | Compound | IC50 ([3]; Homo sapiens, NCI-H460) [µM] | IC50 ([4]; Homo sapiens, HCT-116) [µM] | IC50 ([5]; hTERT-RPE1) [µM] | IC50 ([6]; Homo sapiens, HAP1) [µM] | IC50 ([7]; DND41) [µM] | IC50 ([8]; Homo sapiens, CAPAN-1) [µM] | Activity Gain [A] [9] | Activity Gain [A] [10] | further results
1 | NC(=O)c1ncn([C@@H]2O[C@H](CO)[C@@H](O)[C@H]2O)n1 [ribavirin, reference compound] | – | – | – | – | – | – | – | – | CC50 [1]: ≥ 100 µM; EC50 [2, 15]: 8.9 µM; EC50 [2, 16]: 6.6 µM
2 | CCOP(=O)(OCC)[C@H]1[C@H](c2ccc(F)cc2F)C(=O)N1Cc1ccccc1 (relative stereo) [trans-11e, trans-N-benzyl-3-(2,4-difluorophenyl)-4-(diethoxyphosphoryl)azetidin-2-one] | 24.4 | 36.6 | 25.6 | 42.9 | > 100 | 36.5 | 0.5 | 1 | –
3 | CCOP(=O)(OCC)[C@H]1[C@H](c2ccccc2)C(=O)N1Cc1ccccc1 (relative stereo) [trans-11a, trans-N-benzyl-3-phenyl-4-(diethoxyphosphoryl)azetidin-2-one] | 50.9 | > 100 | > 100 | 63.6 | > 100 | 61 | <0.5 | 1–2 | –
4 | CCOP(=O)(OCC)[C@@H]1[C@H](c2ccc(F)cc2)C(=O)N1C (relative stereo) [cis-10d, cis-N-methyl-3-(4-fluorophenyl)-4-(diethoxyphosphoryl)azetidin-2-one] | 71 | 86.5 | > 100 | 70.3 | > 100 | > 100 | 0.5 | 1 | –
5 | CCOP(=O)(OCC)[C@@H]1[C@H](c2ccc(F)cc2)C(=O)N1Cc1ccccc1 (relative stereo) [cis-11d, cis-N-benzyl-3-(4-fluorophenyl)-4-(diethoxyphosphoryl)azetidin-2-one] | 45.9 | 54.1 | > 100 | 61.9 | > 100 | 35.9 | 1 | 1 | –
6 | CCOP(=O)(OCC)[C@@H]1[C@H](c2ccccc2)C(=O)N1C (relative stereo) [cis-10a, cis-N-methyl-3-phenyl-4-(diethoxyphosphoryl)azetidin-2-one] | – | – | – | – | – | – | 0.5 | 1–2 | IC50 [3]: > 100 µM; IC50 [4]: > 100 µM; IC50 [5]: > 100 µM; IC50 [6]: 46.3 µM; IC50 [7]: > 100 µM; IC50 [8]: 37.8 µM; OXA+ Cpd MIC [9, 17]: 1 µg/mL; OXA+ Cpd MIC [10, 17]: 256 to 512 µg/mL
7 | CCOP(=O)(OCC)[C@@H]1[C@H](c2ccc(F)c(C)c2)C(=O)N1Cc1ccccc1 (relative stereo) [cis-11f, cis-N-benzyl-3-(4-fluoro-3-methylphenyl)-4-(diethoxyphosphoryl)azetidin-2-one] | 53.6 | > 100 | > 100 | > 100 | > 100 | 38.4 | <0.5 | 1–2 | CC50 [1]: 39.9 µM; MCC (minimum cytotoxic concentration) [11]: > 100 µM; EC50 [2, 15]: 12 µM; EC50 [2, 16]: 8.3 µM
8 | Nc1ccn(C[C@@H](CO)OCP(=O)(O)O)c(=O)n1 [cidofovir] | – | – | – | – | – | – | – | – | EC50 [12]: 0.67 µM
9 | CCOP(=O)(OCC)[C@@H]1[C@H](c2ccccc2F)C(=O)N1C (relative stereo) [cis-10b, cis-N-methyl-3-(2-fluorophenyl)-4-(diethoxyphosphoryl)azetidin-2-one] | 45.2 | > 100 | > 100 | 14.5 | > 100 | 31.9 | 0.5 | 1 | –
10 | CCOP(=O)(OCC)[C@H]1[C@H](c2ccc(F)c(C)c2)C(=O)N1Cc1ccccc1 (relative stereo) [trans-11f, trans-N-benzyl-3-(4-fluoro-3-methylphenyl)-4-(diethoxyphosphoryl)azetidin-2-one] | 37 | 35.3 | 33.5 | 46.5 | 65.8 | 34.8 | 0.5 | 16 | Activity against human coronavirus (229E) relative to ribavirin [13]: ~2.5 fold; EC50 ([13]; Human coronavirus 229E, HEL cells, reduction of virus-induced cytopathogenicity by 50%): 45 µM; Effect on normal cell morphology [14]: did not affect normal cell morphology; EC50 [12]: 54.7 µM
11 | CCOP(=O)(OCC)[C@@H]1[C@H](c2ccccc2F)C(=O)N1Cc1ccccc1 (relative stereo) [cis-11b, cis-N-benzyl-3-(2-fluorophenyl)-4-(diethoxyphosphoryl)azetidin-2-one] | 72.8 | 74.1 | > 100 | > 100 | > 100 | 53 | 1 | 1 | –
12 | Nc1nc(O)c2ncn(COC(CO)CO)c2n1 [ganciclovir] | – | – | – | – | – | – | – | – | EC50 [12]: 3.15 µM
13 | CCOP(=O)(OCC)[C@@H]1[C@H](c2ccccc2)C(=O)N1Cc1ccccc1 (relative stereo) [cis-11a, cis-N-benzyl-3-phenyl-4-(diethoxyphosphoryl)azetidin-2-one] | 78.8 | 87.9 | > 100 | > 100 | > 100 | 95.2 | 0.5 | 1–2 | –
